Test results: patent publication US10174078B2, “Keratan sulfate specific transporter molecules” (PHI PHARMA SA, priority 2014, dated 2019)
Square brackets hold non-standard residues; d marks the D form. Ends that are not written are not given here. Peptide text beside a SMILES is read from it. 3'AdT = not defined here

Assays:
[1] = test system: keratan-sulfate (KS); test: modified ELISA: binding of peptides to plate-coated keratan-sulfate; conditions: plates coated with 1 mg/ml KS, 1 mg/ml peptide, 1 hour at room temperature
Description: The binding of the seven-mer peptides of the invention to KS as predicted by the models, in particular, as compared to the binding to other proteoglycans was tested using a modified ELISA protocol. ELISA plates were coated overnight with 1 mg/ml of heparin sulfate (HS), chondroitin-4-sulfate (C4S), chondroitin-6-sulfate (C6S) or keratan-sulfate (KS) in PBS. The wells were then washed with PBS and incubated for 1 hour at room temperature with 1 mg/ml of an exemplary peptide of the invention having the sequence RYKvRIK (“RYK-KS”; SEQ ID NO:7) or a standard TAT peptide. The plates were then thoroughly washed with PBS and subsequently photographed with a LUMASCOPE™ luminescent microscope. Images were then quantified using the ImageJ software (FIG. 4).
The same modified ELISA protocol was used to examine the impact of modifying the freely-selectable positions 2, 4 and 6 on the specific binding to KS.
The impact of sequence variation on specific binding was also investigated with select peptides using the above described modified ELISA.

[2] = estimation of in vivo stability: incubation of peptides with fetal calf serum; assay type: in vitro ADME; conditions: 37° C.; for degradation in fetal calf serum: 6 hr; for remaining at 6 h: fetal calf serum, read-out: stable at 6 hours
Description: In vivo stability was estimated by mixing peptides with fetal calf serum and incubating at 37° C. for 6 hr. Samples were tested at both 0 and 6 hours.

[3] = test system: MDCK cells; test: viability of MDCK cultures by trypan blue exclusion after 96 hour incubation with BAM-conjugate; assay type: cell-based; conditions: 0.5 μM to 10 μM tested
Description: The activity of peptides of the invention as targeting moieties was tested in vitro in preliminary studies using cells lines expressing KS. The nucleoside analog 3′ amino deoxythymidine (3′AdT) was conjugated to the amino-terminus of the peptide “RYRI” (RYKvRlK (SEQ ID NO:7)) using a single D-Glu residue (3′AdT-e-RYRI).
Confluent cultures of MDCK were passaged at 1/20 dilution and exponentionally growing cells were incubated for 96 hours with concentrations of the nucleoside analog conjugates ranging from 0.5 μM to 10 μM. Viability was subsequently assessed using trypan blue exclusion.

Compound | binding to KS [1] | degradation in fetal calf serum [2] | other results
RKKRRQRR (Artificial TAT control peptide) [standard TAT peptide] | increases in binding that were likely non-selective | – | –
CC[C@H](C)[C@H](NC(=O)[C@H](CCCNC(=N)N)NC(=O)[C@H](NC(=O)[C@H](CCCCN)NC(=O)[C@H](Cc1ccc(O)cc1)NC(=O)[C@@H](N)CCCNC(=N)N)C(C)C)C(=O)N[C@@H](CCCCN)C(=O)O [RYK-KS, RYKvRIK] (HELM PEPTIDE1{R.Y.K.[dV].R.I.K}$$$$V2.0; N-terminus and C-terminus assumed) | – | no degradation | remaining at 6 h [2]: 100%
RPKHRPK [RPKHRPK] | – | completely degraded | –
CC[C@H](C)[C@H](N)C(=O)N[C@@H](CCCNC(=N)N)C(=O)N[C@H](C(=O)N[C@H](CCCCN)C(=O)N[C@H](C(=O)N[C@H](CCCNC(=N)N)C(=O)N[C@H](C(=O)N[C@@H](CCCCN)C(=O)O)[C@@H](C)CC)[C@@H](C)CC)[C@@H](C)CC [IRIkIrIK] (HELM PEPTIDE1{I.R.I.[dK].I.[dR].I.K}$$$$V2.0; N-terminus and C-terminus assumed) | – | no degradation | remaining at 6 h [2]: 100%
RYKvFIKPRh (RYK[dV]FIKPR[dH]) | eliminated binding activity | – | –
RRRRRRRRR [pure arginine 9-mer] | increases in binding that were likely non-selective | – | –
D-linked conjugate: 3′AdT conjugated to the amino-terminus of the peptide RYRI (RYKvRIK) by a single D-Glu residue ({3'AdT}-[dE]RYK[dV]RIK; reading uncertain; also: printed as RYKvRIK) | – | – | concentrations with substantial effects on viability [3]: ≥ 0.5 µM
RYKvRPKYF (RYK[dV]RPKYF) [control peptide with proline at position 6] | eliminated binding activity | – | –
